Measurements reported in ChEMBL document CHEMBL1671764, “In vitro and in vivo activities of LCB01-0371, a new oxazolidinone” (2010).
Calls of active or inactive are those of the source.

Legend:
Streptococcus pneumoniae [1] = experiment: Antibacterial activity against 1 x 10^4 CFU Streptococcus pneumoniae ATCC 6305 after 18 hrs by CLSI 2-fold agar dilution method; assay type: functional; details: ATCC 6305, 18 h
Staphylococcus aureus [2] = experiment: Antibacterial activity against methicillin-susceptible Staphylococcus aureus Giorgio assessed as bacteriostatic at 8 times MIC after 24 hrs by […] method; assay type: functional, organism-based
Enterococcus faecium = experiment: Antibacterial activity against 10^4 to 10^5 CFU Enterococcus faecium after 18 hrs by CLSI 2-fold agar dilution method; assay type: functional
Staphylococcus aureus [3] = experiment: Antibacterial activity against methicillin-susceptible Staphylococcus aureus Giorgio assessed as bacteriostatic at MIC after 24 hrs by […] method; assay type: functional, organism-based
Staphylococcus aureus [4] = experiment: Antibacterial activity against methicillin-resistant Staphylococcus aureus p125 assessed as bacteriostatic at 2 times MIC after 24 hrs by […] method; assay type: functional, organism-based
Staphylococcus aureus [5] = experiment: Antibacterial activity against methicillin-susceptible Staphylococcus aureus Giorgio assessed as bacterial regrowth at 8 times MIC after 24 hrs by […] method; assay type: functional, organism-based
Staphylococcus aureus [6] = experiment: Antibacterial activity against methicillin-susceptible Staphylococcus aureus Giorgio assessed as bacteriostatic at 4 times MIC after 24 hrs by […] method; assay type: functional, organism-based
Staphylococcus aureus [7] = experiment: Antibacterial activity against 1 x 10^8 CFU methicillin-resistant Staphylococcus aureus p125 after 18 hrs by CLSI 2-fold agar dilution method; assay type: functional; details: p125, 18 h
Staphylococcus aureus [8] = experiment: Antibacterial activity against 10^4 to 10^5 CFU methicillin-resistant Staphylococcus aureus after 18 hrs by CLSI 2-fold agar dilution method; assay type: functional
Enterococcus faecalis [9] = experiment: Antibacterial activity against 2 x 10^8 CFU Enterococcus faecalis u810 after 18 hrs by CLSI 2-fold agar dilution method; assay type: functional; details: u810, 18 h
Staphylococcus aureus [10] = experiment: Antibacterial activity against methicillin-resistant Staphylococcus aureus p125 assessed as bacterial regrowth at 8 times MIC after 24 hrs by […] method; assay type: functional, organism-based
Enterococcus = experiment: Antibacterial activity against 10^4 to 10^5 CFU vancomycin-resistant Enterococcus after 18 hrs by CLSI 2-fold agar dilution method; assay type: functional
Moraxella catarrhalis = experiment: Antibacterial activity against 10^4 to 10^5 CFU Moraxella catarrhalis after 18 hrs by CLSI 2-fold agar dilution method; assay type: functional
Staphylococcus aureus [11] = experiment: Antibacterial activity against methicillin-susceptible Staphylococcus aureus Giorgio assessed as bacteriostatic at 2 times MIC after 24 hrs by […] method; assay type: functional, organism-based
Staphylococcus aureus [12] = experiment: Antibacterial activity against methicillin-resistant Staphylococcus aureus p125 assessed as bacterial regrowth at 4 times MIC after 24 hrs by […] method; assay type: functional, organism-based
Staphylococcus [13] = experiment: Antibacterial activity against 10^4 to 10^5 CFU methicillin-resistant coagulase-negative Staphylococcus after 18 hrs by CLSI 2-fold agar dilution method; assay type: functional
Haemophilus influenzae [14] = experiment: Antibacterial activity against 10^4 to 10^5 CFU Haemophilus influenzae after 18 hrs by CLSI 2-fold agar dilution method; assay type: functional
Staphylococcus aureus [15] = experiment: Antibacterial activity against 10^4 to 10^5 CFU methicillin-susceptible Staphylococcus aureus after 18 hrs by CLSI 2-fold agar dilution method; assay type: functional
Staphylococcus aureus [16] = experiment: Antibacterial activity against methicillin-resistant Staphylococcus aureus p125 assessed as bacteriostatic at 8 times MIC after 24 hrs by […] method; assay type: functional, organism-based
Streptococcus pyogenes = experiment: Antibacterial activity against 10^4 to 10^5 CFU Streptococcus pyogenes after 18 hrs by CLSI 2-fold agar dilution method; assay type: functional
Haemophilus influenzae [17] = experiment: Antibacterial activity against 7.5 x 10^8 CFU Haemophilus influenzae hd2 after 18 hrs by CLSI 2-fold agar dilution method; assay type: functional; details: hd2, 18 h
Enterococcus faecalis [18] = experiment: Antibacterial activity against 10^4 to 10^5 CFU Enterococcus faecalis after 18 hrs by CLSI 2-fold agar dilution method; assay type: functional
Staphylococcus aureus [19] = experiment: Antibacterial activity against methicillin-resistant Staphylococcus aureus p125 assessed as bacteriostatic at MIC after 24 hrs by […] method; assay type: functional, organism-based
Staphylococcus [20] = experiment: Antibacterial activity against 10^4 to 10^5 CFU methicillin-susceptible coagulase-negative Staphylococcus after 18 hrs by CLSI 2-fold agar dilution method; assay type: functional
Staphylococcus aureus [21] = experiment: Antibacterial activity against methicillin-resistant Staphylococcus aureus p125 assessed as bacteriostatic at 4 times MIC after 24 hrs by […] method; assay type: functional, organism-based
Staphylococcus aureus [22] = experiment: Antibacterial activity against 1 x 10^7 CFU methicillin-susceptible Staphylococcus aureus Giorgio after 18 hrs by CLSI 2-fold agar dilution method; assay type: functional
Staphylococcus aureus [23] = experiment: Antibacterial activity against methicillin-susceptible Staphylococcus aureus Giorgio assessed as bacterial regrowth at 4 times MIC after 24 hrs by […] method; assay type: functional, organism-based
Streptococcus pneumoniae [24] = experiment: Antibacterial activity against 10^4 to 10^5 CFU Streptococcus pneumoniae after 18 hrs by CLSI 2-fold agar dilution method; assay type: functional
Haemophilus influenzae [25] = experiment: Antibacterial activity against 7.5 x 10^8 CFU Haemophilus influenzae hd2 infected in ICR mouse systemic infection model assessed as mouse protection administered orally twice after 1 and 4 hrs post infection measured after 48 hrs; assay type: functional

CN1CCN(c2ccc(N3C[C@H](CO)OC3=O)cc2F)C=N1 [DELPAZOLID]
8 µg/mL: MIC90 (Moraxella catarrhalis) | MIC50 (Haemophilus influenzae [14]) | MIC90 (Haemophilus influenzae [14]) | MIC (Haemophilus influenzae [17])
2 µg/mL: MIC50 (Enterococcus faecium) | MIC90 (Enterococcus faecium) | MIC90 (Staphylococcus aureus [8]) | MIC (Enterococcus faecalis [9]) | MIC90 (Staphylococcus aureus [15]) | MIC90 (Streptococcus pyogenes) | MIC50 (Enterococcus faecalis [18]) | MIC90 (Enterococcus faecalis [18])
1 µg/mL: MIC (Staphylococcus aureus [7]) | MIC50 (Staphylococcus aureus [8]) | MIC (Enterococcus) | MIC50 (Enterococcus) | MIC90 (Enterococcus) | MIC50 (Staphylococcus aureus [15]) | MIC50 (Streptococcus pyogenes) | MIC (Staphylococcus aureus [22]) | MIC90 (Streptococcus pneumoniae [24])
0.5 µg/mL: MIC (Streptococcus pneumoniae [1]) | MIC (Staphylococcus [13]) | MIC50 (Staphylococcus [13]) | MIC90 (Staphylococcus [13]) | MIC (Staphylococcus [20]) | MIC50 (Staphylococcus [20]) | MIC90 (Staphylococcus [20]) | MIC50 (Streptococcus pneumoniae [24])
active: Activity (Staphylococcus aureus [2]) | Activity (Staphylococcus aureus [3]) | Activity (Staphylococcus aureus [4]) | Activity (Staphylococcus aureus [5]) | Activity (Staphylococcus aureus [6]) | Activity (Staphylococcus aureus [10]) | Activity (Staphylococcus aureus [11]) | Activity (Staphylococcus aureus [12]) | Activity (Staphylococcus aureus [16]) | Activity (Staphylococcus aureus [19]) | Activity (Staphylococcus aureus [21]) | Activity (Staphylococcus aureus [23])
4 µg/mL: MIC50 (Moraxella catarrhalis)

CC[C@H]1OC(=O)[C@H](C)[C@@H](O[C@H]2C[C@@](C)(OC)[C@@H](O)[C@H](C)O2)[C@H](C)[C@@H](O[C@@H]2O[C@H](C)C[C@H](N(C)C)[C@H]2O)[C@](C)(O)C[C@@H](C)C(=O)[C@H](C)[C@@H](O)[C@]1(C)O [ERYTHROMYCIN]
> 64 µg/mL: MIC50 (Enterococcus faecium) | MIC90 (Enterococcus faecium) | MIC50 (Staphylococcus aureus [8]) | MIC50 (Enterococcus) | MIC90 (Enterococcus) | MIC50 (Staphylococcus [13]) | MIC90 (Haemophilus influenzae [14]) | MIC90 (Staphylococcus aureus [15]) | MIC50 (Enterococcus faecalis [18]) | MIC90 (Enterococcus faecalis [18]) | MIC90 (Staphylococcus [20]) | MIC90 (Streptococcus pneumoniae [24])
64 µg/mL: MIC (Haemophilus influenzae [14]) | MIC50 (Haemophilus influenzae [14]) | MIC50 (Streptococcus pneumoniae [24])
0.06 µg/mL: MIC50 (Streptococcus pyogenes)
0.25 µg/mL: MIC50 (Staphylococcus aureus [15]) | MIC50 (Staphylococcus [20])
2 µg/mL: MIC90 (Streptococcus pyogenes)

CO/N=C1\CN(c2nc3c(cc2F)c(=O)c(C(=O)O)cn3C2CC2)CC1CN (stereo not given) [GEMIFLOXACIN]
0.5 µg/mL: MIC50 (Enterococcus) | MIC50 (Staphylococcus [13]) | MIC90 (Staphylococcus [20])
1 µg/mL: MIC90 (Staphylococcus [13])
0.015 µg/mL: MIC50 (Staphylococcus aureus [15]) | MIC50 (Staphylococcus [20])
0.008 µg/mL: MIC (Haemophilus influenzae [14]) | MIC50 (Haemophilus influenzae [14]) | MIC90 (Haemophilus influenzae [14])
4 µg/mL: MIC90 (Enterococcus faecalis [18])
2 µg/mL: MIC50 (Enterococcus faecium) | MIC50 (Staphylococcus aureus [8]) | MIC90 (Enterococcus)
0.125 µg/mL: MIC50 (Enterococcus faecalis [18])
16 µg/mL: MIC90 (Enterococcus faecium)
0.06 µg/mL: MIC90 (Staphylococcus aureus [15]) | MIC90 (Streptococcus pyogenes) | MIC90 (Streptococcus pneumoniae [24])
< 0.008 µg/mL: MIC50 (Moraxella catarrhalis) | MIC90 (Moraxella catarrhalis)
0.03 µg/mL: MIC50 (Streptococcus pyogenes) | MIC50 (Streptococcus pneumoniae [24])
64 µg/mL: MIC90 (Staphylococcus aureus [8])

CC(=O)NC[C@H]1CN(c2ccc(N3CCOCC3)c(F)c2)C(=O)O1 [LINEZOLID]
16 µg/mL: MIC90 (Moraxella catarrhalis) | MIC (Haemophilus influenzae [25])
1 µg/mL: MIC (Staphylococcus [13]) | MIC50 (Staphylococcus [13]) | MIC90 (Staphylococcus [13]) | MIC (Staphylococcus [20]) | MIC50 (Staphylococcus [20]) | MIC50 (Streptococcus pneumoniae [24]) | MIC90 (Streptococcus pneumoniae [24])
2 µg/mL: MIC50 (Enterococcus faecium) | MIC90 (Enterococcus faecium) | MIC50 (Staphylococcus aureus [8]) | MIC90 (Staphylococcus aureus [8]) | MIC (Enterococcus) | MIC50 (Enterococcus) | MIC90 (Enterococcus) | MIC50 (Staphylococcus aureus [15]) | MIC90 (Staphylococcus aureus [15]) | MIC50 (Streptococcus pyogenes) | MIC90 (Streptococcus pyogenes) | MIC50 (Enterococcus faecalis [18]) | MIC90 (Enterococcus faecalis [18]) | MIC90 (Staphylococcus [20])
8 µg/mL: MIC50 (Moraxella catarrhalis)

Cc1onc(-c2ccccc2)c1C(=O)N[C@@H]1C(=O)N2[C@@H]1SC(C)(C)[C@@H]2C(=O)O [OXACILLIN]
> 64 µg/mL: MIC50 (Enterococcus faecium) | MIC90 (Enterococcus faecium) | MIC50 (Staphylococcus aureus [8]) | MIC90 (Staphylococcus aureus [8]) | MIC50 (Enterococcus) | MIC90 (Enterococcus) | MIC50 (Staphylococcus [13]) | MIC90 (Staphylococcus [13]) | MIC90 (Enterococcus faecalis [18])
0.125 µg/mL: MIC50 (Staphylococcus [20])
0.25 µg/mL: MIC50 (Staphylococcus aureus [15])
8 µg/mL: MIC90 (Streptococcus pyogenes) | MIC50 (Streptococcus pneumoniae [24])
0.5 µg/mL: MIC90 (Staphylococcus aureus [15]) | MIC50 (Streptococcus pyogenes)
< 0.008 µg/mL: MIC50 (Haemophilus influenzae [14])
16 µg/mL: MIC50 (Enterococcus faecalis [18]) | MIC90 (Streptococcus pneumoniae [24])
1 µg/mL: MIC90 (Staphylococcus [20])
0.06 µg/mL: MIC50 (Moraxella catarrhalis) | MIC90 (Moraxella catarrhalis)
0.015 µg/mL: MIC90 (Haemophilus influenzae [14])

CN[C@H](CC(C)C)C(=O)N[C@H]1C(=O)N[C@@H](CC(N)=O)C(=O)N[C@H]2C(=O)N[C@H]3C(=O)N[C@H](C(=O)N[C@H](C(=O)O)c4cc(O)cc(O)c4-c4cc3ccc4O)[C@H](O)c3ccc(c(Cl)c3)Oc3cc2cc(c3O[C@@H]2O[C@H](CO)[C@@H](O)[C@H](O)[C@H]2O[C@H]2C[C@](C)(N)[C@H](O)[C@H](C)O2)Oc2ccc(cc2Cl)[C@H]1O [VANCOMYCIN]
2 µg/mL: MIC90 (Enterococcus faecium) | MIC90 (Staphylococcus aureus [8]) | MIC50 (Staphylococcus [13]) | MIC90 (Staphylococcus [13]) | MIC50 (Enterococcus faecalis [18]) | MIC50 (Staphylococcus [20])
4 µg/mL: MIC90 (Enterococcus faecalis [18]) | MIC90 (Staphylococcus [20])
0.5 µg/mL: MIC50 (Streptococcus pneumoniae [24])
> 64 µg/mL: MIC50 (Enterococcus) | MIC90 (Enterococcus) | MIC50 (Haemophilus influenzae [14]) | MIC90 (Haemophilus influenzae [14])
1 µg/mL: MIC50 (Enterococcus faecium) | MIC50 (Staphylococcus aureus [8]) | MIC50 (Staphylococcus aureus [15]) | MIC90 (Staphylococcus aureus [15]) | MIC50 (Streptococcus pyogenes) | MIC90 (Streptococcus pyogenes) | MIC90 (Streptococcus pneumoniae [24])
